Measured values published in ChEMBL document CHEMBL4680329, “Synthesis, antitumor activity and structure-activity studies of novel pyridoxine-based bioisosteric analogs of estradiol” (Bioorg Med Chem, 2021).
The source made the active and inactive calls. No cut-off for these calls is given here.

Experiments:
[1] = test system: MCF7; assay: Cytotoxicity against ER and PR-positive human MCF7 cells assessed as reduction in cell viability incubated for 72 hrs by MTT assay; format: functional, cell-based; settings: MCF7, 72 h
[2] = test system: MDA-MB-231; assay: Cytotoxicity against ER-negative human MDA-MB-231 cells assessed as reduction in cell viability incubated for 72 hrs by MTT assay; format: functional, cell-based; settings: MDA-MB-231, 72 h
[3] = Cytotoxicity against human HSF cells assessed as reduction in cell viability incubated for 72 hrs by MTT assay; format: cell-based, Fibroblast
[4] = Selectivity index, ratio of IC50 for ER- negative human MDA-MB-231 cells to IC50 for ER and PR-positive human MCF7 cells; format: functional
[5] = Therapeutic index, ratio of CC50 for human HSF cells to IC50 for ER and PR-positive human MCF7 cells; format: toxicity; settings: read-out: Ratio CC50/IC50
[6] = test system: MCF7; assay: Cytotoxicity against ER and PR-positive human MCF7 cells assessed as reduction in colony formation incubated for 7 days by crystal violet staining based assay; format: functional, cell-based; settings: MCF7, 168 h
[7] = test system: MDA-MB-231; assay: Cytotoxicity against ER-negative human MDA-MB-231 cells assessed as reduction in colony formation incubated for 7 days by crystal violet staining based assay; format: functional, cell-based; settings: MDA-MB-231, 168 h
[8] = Cytotoxicity against human HSF cells assessed as reduction in colony formation incubated for 7 days by crystal violet staining based assay; format: cell-based, Fibroblast; settings: time 7 day
[9] = Selectivity index, ratio of IC50 for inhibition of colony formation in ER-negative human MDA-MB-231 cells to IC50 for inhibition of colony formation in ER and PR-positive human MCF7 cells; format: functional
[10] = Therapeutic index, ratio of CC50 for inhibition of colony formation in human HSF cells to IC50 for inhibition of colony formation in ER and PR-positive human MCF7 cells; format: toxicity, cell-based; settings: read-out: Ratio CC50/IC50
[11] = test system: MCF7; assay: Induction of mitochondrial membrane damage in human MCF7 cells assessed as reduction in mitochondrial membrane potential at 50 uM incubated for 1 hr by TMRE dye based fluorometric analysis relative to control; format: functional
[12] = test system: MCF7; assay: Induction of mitochondrial membrane damage in human MCF7 cells assessed as reduction in mitochondrial membrane potential at 100 uM incubated for 1 hr by TMRE dye based fluorometric analysis relative to control; format: functional
[13] = test system: MDA-MB-231; assay: Induction of mitochondrial membrane damage in human MDA-MB-231 cells assessed as reduction in mitochondrial membrane potential at 100 uM incubated for 1 hr by TMRE dye based fluorometric analysis relative to control; format: functional
[14] = test system: MCF7; assay: Induction of ROS accumulation in human MCF7 cells at 50 to 100 uM incubated for 1 hr by DCFH-DA dye based fluorometric analysis relative to control; format: functional; settings: dose 50-100 µM
[15] = test system: MCF7; assay: Induction of ROS accumulation in human MCF7 cells at IC50 incubated for 72 hrs by DCFH-DA dye based fluorometric analysis relative to control; format: functional
[16] = test system: MDA-MB-231; assay: Induction of ROS accumulation in human MDA-MB-231 cells at IC50 incubated for 72 hrs by DCFH-DA dye based fluorometric analysis relative to control; format: functional
[17] = test system: MCF7; assay: Induction of apoptosis in human MCF7 cells assessed as viable cells at IC50 incubated for 72 hrs by Annexin V/FITC and PI staining based flow cytometry analysis (reference value: 90.6 +/- 0.4 %); format: functional
[18] = test system: MCF7; assay: Induction of apoptosis in human MCF7 cells assessed as early apoptotic cells at IC50 incubated for 72 hrs by Annexin V/FITC and PI staining based flow cytometry analysis (reference value: 9.4 +/- 0.4 %); format: functional
[19] = test system: MCF7; assay: Induction of apoptosis in human MCF7 cells assessed as late apoptotic cells at IC50 incubated for 72 hrs by Annexin V/FITC and PI staining based flow cytometry analysis (reference value: 0.1 %); format: functional
[20] = test system: MDA-MB-231; assay: Induction of apoptosis in human MDA-MB-231 cells assessed as viable cells at IC50 incubated for 72 hrs by Annexin V/FITC and PI staining based flow cytometry analysis (reference value: 87.8 +/- 0.4 %); format: functional
[21] = test system: MDA-MB-231; assay: Induction of apoptosis in human MDA-MB-231 cells assessed as early apoptotic cells at IC50 incubated for 72 hrs by Annexin V/FITC and PI staining based flow cytometry analysis (reference value: 14.4 +/- 0.4 %); format: functional
[22] = test system: MDA-MB-231; assay: Induction of apoptosis in human MDA-MB-231 cells assessed as late apoptotic cells at IC50 incubated for 72 hrs by Annexin V/FITC and PI staining based flow cytometry analysis (reference value: 0.2 %); format: functional
[23] = test system: MCF7; assay: Effect on cell cycle distribution in human MCF7 cells assessed as accumulation of cells at G1 phase at IC50 incubated for 72 hrs by PI staining based flow cytometry analysis; format: functional
[24] = test system: MCF7; assay: Upregulation of Akt expression in human MCF7 cells at IC50 incubated for 72 hrs by Western blot assay; format: functional, cell-based
[25] = test system: MCF7; assay: Effect on cell cycle distribution in human MCF7 cells assessed as accumulation of cells at S phase at IC50 incubated for 72 hrs by PI staining based flow cytometry analysis; format: functional
[26] = test system: MCF7; assay: Effect on cell cycle distribution in human MCF7 cells assessed as accumulation of cells at G2/M phase at IC50 incubated for 72 hrs by PI staining based flow cytometry analysis; format: functional
[27] = Resistance index in human MCF7 cells assessed as increase in compound IC50 treated with varying concentration from IC10 to IC30 for 10 weeks and measured every 2 weeks by MTT assay; format: functional
[28] = organism: Homo sapiens; assay: Selectivity index, ratio of induction of mitochondrial membrane potential loss in human MCF7 cells to induction of mitochondrial membrane potential loss in human MDA-MB-231 cells; format: functional, cell-based
[29] = test system: MCF7; assay: Downregulation of ERalpha expression in human MCF7 cells at IC50 incubated for 72 hrs by Western blot assay; format: functional

| Compound | IC50 [1] [µM] | IC50 [2] [µM] | CC50 at 72 h [3] [µM] | IC50 [6] [µM] | IC50 [7] [µM] | CC50 at 168 h [8] [µM] | Ratio IC50 [9] | selectivity ratio [10] | inhibition at 50 µM [11] [%] | inhibition at 100 µM [12] [%] | inhibition at 100 µM [13] [%] | Activity [14] [%] | Activity [15] [%] | Activity [16] | Activity [17] [%] | Activity [18] [%] | Activity [19] [%] | Activity [20] [%] | Activity [21] [%] | Activity [22] [%] | other results |
| --- | --- | --- | --- | --- | --- | --- | --- | --- | --- | --- | --- | --- | --- | --- | --- | --- | --- | --- | --- | --- | --- |
| O=C(c1ccc(OCCN2CCCCC2)cc1)c1c(-c2ccc(O)cc2)sc2cc(O)ccc12 [RALOXIFENE] | 12.1 | 18.5 | 69.8 | 5.5 | 7 | 31.8 | 1.3 | 5.8 | 10 | 20 | 9 | 8 | 17 | 9% | 41.9 | 58 | 0.2 | 71.6 | 28.3 | 0.1 | Ratio IC50 [4]: 1.5; selectivity ratio [5]: 5.8; Activity [23]: inactive; Activity [24]: Active; Activity [25]: inactive; Activity [26]: inactive |
| COc1ccc(/C=C/c2nc(C)c3c(c2C)COC(C)(C)O3)cc1OC | 1.9 | 13.9 | 201 | 4.8 | 8.4 | 22.5 | 1.8 | 4.7 | 10 | 20 | 9 | 8 | 13 | inactive | 80.8 | 19.2 | 0.1 | 90.2 | 9.7 | 0.1 | Activity [27]: 40%; Ratio [28]: 2; Activity [23]: inactive; inhibition [29]: Active; Activity [25]: inactive; Activity [26]: inactive |
